# Ends that are not written are not given here.
# What was measured:
# S. aureus (CCARM 3090) = settings: 24 hours at 37° C.
# P. aeruginosa 4891 = settings: P. aeruginosa 4891, 24 hours at 37° C.
# S. aureus (CCARM 3518) = settings: 24 hours at 37° C.
# [1] = system: P. aeruginosa (ATCC 27853); settings: 24 hours at 37° C.
# E. coli (ATCC 25922) = settings: 24 hours at 37° C.
# E. coli (CCARM 1238) = settings: 24 hours at 37° C.
# S. aureus (ATCC 25923) = settings: 24 hours at 37° C.
# E. coli (CCARM 1229) = settings: 24 hours at 37° C.
# P. aeruginosa 4007 = settings: P. aeruginosa 4007, 24 hours at 37° C.
# [2] = system: erythrocytes of a mouse (Balb/c); assay: Erythrocyte hemolytic activity; settings: 1 hour at 37° C.
# Procedure: To compare the cytotoxicity among the peptides that are produced by the method of Example 1, erythrocyte hemolytic activity of the synthesized peptide was measured.
# After that, the amount of hemoglobin contained in a supernatant collected by centrifuge at 1,000×g was determined by measuring the absorbance at a wavelength of 414 nm. As a control to be used as a reference for cell disruption level, the supernatant collected by a treatment with 1% Triton X-100 (Sigma, USA) and a reaction for 1 hour at 37° C. was used to measure the absorbance. By setting the resulting absorbance value at 100% of the erythrocyte hemolytic activity, hemolysis of each peptide was calculated using the following equation 1. Erythrocyte disrupting ability (%)=(Absorbance A−Absorbance B)/(Absorbance C−Absorbance B)×100 Equation 1 (in the above equation, Absorbance A indicates the absorbance of a reaction solution treated with each peptide, in which the absorbance is measured at a wavelength of 414 nm; Absorbance B indicates the absorbance of a reaction solution treated with PBS, in which the absorbance is measured at a wavelength of 414 nm; and Absorbance C indicates the absorbance of a reaction solution treated with 1% Triton X-100, in which the absorbance is measured at a wavelength of 414 nm).
# Staphylococcus aureus [3] = assay: Scanning electron microscopy (SEM), membrane damage; format: cell-based; settings: peptide at MIC, 1 hour at 37° C.
# Procedure: (§1) As a control, cells applied with no peptide were used. After the culture, the cells were collected, and, by using 2.5% glutaraldehyde, the bacterial cells were treated for 18 hour at 4° C. After carrying out washing two times with PBS buffer solution, the fixed cells were dehydrated in stepwise manner by using 100% ethanol and diluted ethanol (50%, 70%, 90% and 100%). After the dehydration followed by drying, the specimen was coated with platinum and determination was made by low vacuum scanning electron microscopy.
# Escherichia coli [4] = assay: as above; format: cell-based; settings: peptide at MIC, 1 hour at 37° C.
# Procedure: as §1
# plasmid DNA (pRSETB) = assay: Binding between antimicrobial peptide and DNA (agarose gel electrophoresis); settings: plasmid DNA 300 ng, peptide/DNA ratio 0.25:1 to 4:1, 10 minutes at 37° C.
# Procedure: Specifically, plasmid DNA (pRSETB, 300 ng) and the peptide were reacted for at different ratio (i.e., peptide/DNA ratio was 0 (DNA only), 0.25:1, 0.5:1, 1:1, 1.5:1, 2:1, 3:1, or 4:1) for 10 minutes at 37° C. After that, electrophoresis was carried out using 1% agarose gel followed by staining with ethidium bromide (EtBr) and UV determination.
# Staphylococcus aureus [5] = assay: Flow cytometry, propidium iodide, effect on bacteria membrane; format: cell-based; settings: peptide at MIC
# Procedure: (§2) After that, the supernatant was removed by centrifuge (10,000 rpm) and stained with propidium iodide (PI, concentration of 10 μg/ml) for 30 minutes at 4° C. Thereafter, unbound propidium iodide was removed by centrifuge, and the problem of cell aggregation phenomenon was solved by adding physiological saline (PBS) in an amount of 1 ml.
# Escherichia coli [6] = assay: as above; format: cell-based; settings: peptide at MIC
# Procedure: as §2
# [7] = Cytotoxicity in normal cell line (MTT); settings: human, HaCaT keratinocyte cells
# Procedure: (§3) To determine the cytotoxicity of the peptides produced by the method of Example 1 in normal cell line, cytotoxicity was measured by using human keratinocyte cell line (HaCaT cell line, Dr. N E. Fusenig, Heidelberg, Germany).
# (§4) Specifically, HaCaT cells, which have been cultured in DMEM medium containing 10% FBS (fetal bovine serum), were aliquoted in a microtiter plate to have 2×10^5 cells per well. […] Twenty-four hours later, a reaction solution containing 0.5 mg/ml MTT (thiazolyl blue tetrazolium bromide) dissolved in phosphate buffered saline (PBS) was added in an amount of 100 μl to each well and the reaction was allowed to occur for 4 hours. After that, the supernatant was discarded, and, by dissolving MTT crystals that are formed by adding 200 μl DMSO (dimethyl sulfoxide), the absorbance at 560 nm was measured to determine the cell survival ability.
# [8] = system: human keratinocyte cell line (HaCaT); assay: in vitro; settings: HaCaT keratinocyte cells, 24 h, 100 µM
# Procedure: as §3, §4
# [9] = system: Bacillus subtilis KCTC 1998; settings: KCTC 1998, 18 h
# From the text: (§5) To compare the antimicrobial activity among the peptides produced by the method of Example 1, the inventors of the present invention measured the minimal growth inhibitory concentration (MIC), which is minimum concentration of the peptide not allowing any […] of bacterial cells.
# (§6) Specifically, the bacterial strains described in the following Table 2 were purchased and cultured to a mid-log phase in a medium that is appropriate for each strain. […] After the addition to a plate, the cells were cultured for 18 hours at 37° C. […] As a control, Pseudin-2 as a mother peptide was used.
# [10] = system: Pseudomonas aeruginosa isolated strain 4891 (tolerance to antibiotics)
# From the text: as §5, §6
# [11] = system: Listeria monocytogenes KCTC 3710; settings: KCTC 3710, 18 h
# From the text: as §5, §6
# [12] = system: Staphylococcus aureus CCARM 3090 (tolerance to antibiotics)
# From the text: as §5, §6
# [13] = system: Escherichia coli ATCC 25922; settings: ATCC 25922, 18 h
# From the text: as §5, §6
# [14] = system: Trichosporon beigelii KCTC 7707; settings: KCTC 7707, 18 h
# From the text: as §5, §6
# [15] = system: Escherichia coli CCARM 1238 (tolerance to antibiotics)
# From the text: as §5, §6
# [16] = system: Escherichia coli CCARM 1229 (tolerance to antibiotics)
# From the text: as §5, §6
# [17] = system: Staphylococcus aureus CCARM 3518 (tolerance to antibiotics)
# From the text: as §5, §6
# [18] = system: Pseudomonas aeruginosa isolated strain 4007 (tolerance to antibiotics)
# From the text: as §5, §6
# [19] = system: Candida albicans KCTC 7270; settings: KCTC 7270, 18 h
# From the text: as §5, §6
# [20] = system: Staphylococcus aureus ATCC 25923; settings: ATCC 25923, 18 h
# From the text: as §5, §6
# [21] = system: Salmonella typhimurium KCTC 1926; settings: KCTC 1926, 18 h
# From the text: as §5, §6
# [22] = system: Pseudomonas aeruginosa ATCC 27853; settings: ATCC 27853, 18 h
# From the text: as §5, §6
compound,measurement,setting,value
O=C(O)c1cn(C2CC2)c2cc(N3CCNCC3)c(F)cc2c1=O [Ciprofloxacin],Biofilm minimal inhibitory concentration,S. aureus (CCARM 3090),>400 µM
same,Biofilm minimal inhibitory concentration,P. aeruginosa 4891,>400 µM
same,Biofilm minimal inhibitory concentration,S. aureus (CCARM 3518),>400 µM
same,Biofilm minimal inhibitory concentration,[1],2 µM
same,Biofilm minimal inhibitory concentration,E. coli (ATCC 25922),2 µM
same,Biofilm minimal inhibitory concentration,E. coli (CCARM 1238),128 µM
same,Biofilm minimal inhibitory concentration,S. aureus (ATCC 25923),4 µM
same,Biofilm minimal inhibitory concentration,E. coli (CCARM 1229),128 µM
same,Biofilm minimal inhibitory concentration,P. aeruginosa 4007,>400 µM
LNALKKVFQGIHEAIKKI-NH2 [Pse-T3],Erythrocyte disrupting ability,[2]; peptide concentration 3.13 μM,0%
same,Erythrocyte disrupting ability,[2]; peptide concentration 6.25 μM,0%
same,Erythrocyte disrupting ability,[2]; peptide concentration 12.5 μM,0%
same,Erythrocyte disrupting ability,[2]; peptide concentration 25 μM,0.5%
same,Erythrocyte disrupting ability,[2]; peptide concentration 50 μM,2.2%
same,Erythrocyte disrupting ability,[2]; peptide concentration 100 μM,5.6%
same,Membrane damage by SEM,Staphylococcus aureus [3],higher damage and disruption of cell membrane
same,Membrane damage by SEM,Escherichia coli [4],rougher than the cells treated with Pseudin-2
same,Binding to DNA,plasmid DNA (pRSETB),showed binding to DNA
same,Membrane disrupting ability compared with Pseudin-2,Staphylococcus aureus [5],higher membrane disrupting ability than Pseudin-2
same,Membrane disrupting ability compared with Pseudin-2,Escherichia coli [6],higher membrane disrupting ability than Pseudin-2
same,"viability at 24 h, 3.13 µM",[7],100%
same,"viability at 24 h, 6.25 µM",[7],100%
same,"viability at 24 h, 12.5 µM",[7],100%
same,"viability at 24 h, 25 µM",[7],100%
same,"viability at 24 h, 50 µM",[7],100%
same,"viability at 24 h, 100 µM",[7],90.3%
WLNALKKVWQGIHEAIKLIWNWVQ-NH2 [Pse-Anal4],Cell survival ability,[8],10.8%
same,"viability at 24 h, 3.13 µM",[7]; Cell survival ability,46.1%
same,"viability at 24 h, 6.25 µM",[7]; Cell survival ability,35.1%
same,"viability at 24 h, 12.5 µM",[7]; Cell survival ability,25.4%
same,"viability at 24 h, 25 µM",[7]; Cell survival ability,20.8%
same,"viability at 24 h, 50 µM",[7]; Cell survival ability,15.3%
same,"viability at 24 h, 100 µM",[7]; Cell survival ability,10.1%
same,Minimal inhibitory concentration,[9],32 µM
same,Minimal inhibitory concentration,[10],64 µM
same,Minimal inhibitory concentration,[11],32 µM
same,Minimal inhibitory concentration,[12],32 µM
same,Minimal inhibitory concentration,[13],16 µM
same,Minimal inhibitory concentration,[14],32 µM
same,Minimal inhibitory concentration,[15],32 µM
same,Minimal inhibitory concentration,[16],32 µM
same,Minimal inhibitory concentration,[17],32 µM
same,Minimal inhibitory concentration,[18],64 µM
same,Minimal inhibitory concentration,[19],32 µM
same,Minimal inhibitory concentration,[20],32 µM
same,Minimal inhibitory concentration,[21],16 µM
same,Minimal inhibitory concentration,[22],16 µM
